Laboratory results reported in patent US20240034761A1, “REGENERATION OF MAMMALIAN TISSUES USING SYNTHETIC IMMODULINS” (priority 2022, published 2024).
Marks after values point to notes of the source that are not given here. Each block holds one compound with its values, some of them ahead of it. Peptide text beside a SMILES is read from it.

Key:
[1] = system: HFF-1 human fibroblast cell line; assay: Collagen stimulating activity in HFF-1 dermal fibroblasts (Collagen-1 ELISA); type: cell-based; conditions: peptide 2 uM, 72 hour; control (buffer) set to 100
Method: Immodulin peptides have potential untility in the field of cosmetics. HFF-1 human fibroblast cell line was obtained from the American Type Culture Collection (ATCC). Cells were grown in a T-75 flask in DMEM Medium containing 10% fetal bovine serum and penicillin-streptomycin at 37° C. in a humidified, 5% CO2 incubator. Cells ([…], 2,000 cells/well) were plated in a 96-well plate and incubated overnight at 37° C. in a humidified, 5% CO2 incubator. Next day, […] of compounds were added (quadruplicate wells). After 72 hour incubation with the compound, supernatants were collected for Collagen-1 ELISA assay and cell viability was measured in a luminometer after the addition of […] CellTiterGlo reagent (Promega Inc, Madison, WI) as recommended by the manufacturer. Collagen stimulating activity of immodulin peptides in HFF-1 dermal fibroblasts: Peptides were added to cells at 2 uM. Collagen-1A1 (COL1) immunoreactivity was measured in the supernatants of cultured cells by ELISA using a rabbit monoclonal anti-COL1 primary antibody (Abcam, Cambridge, MA). Control (buffer) value of immunoreactivity was set to 100.

[2] = system: THP1-Dual monocyte reporter cell line; assay: THP1-Dual myeloid cell differentiation assay (PMA protocol); type: cell-based, human; conditions: PMA 24 h, then peptide 0.33 uM or 0.66 uM 24 h; for CD169+ (AU): relative to immX3AVD = 100; for CCL22: culture supernatant
Method: (§1) Mammalian cell differentiation assays employed the THP1-Dual monocyte reporter cell line (Invivogen Inc, San Diego, CA) seeded at 2×10e5 cells per well in 96-well plates and cultured at 37 degrees C. in RPMI-1640 growth medium plus 10% fetal bovine serum and 1% penicillin/streptomycin. Cells were subsequently treated for 24 hours with 100 ng/ml Phorbol 12-myristate 13-acetate (PMA protocol; Cayman Chemical Company, Ann Arbor, MI). Peptide (0.33 uM or 0.66 uM, as indicated) was then added, and incubation continued for an additional 24 hours. Culture supernatants were assayed for CCL22. Plates with adherent cells were washed with PBS and assayed for immunoreactivity of surface markers such as CD169, Clec9a or Clec12a using fuorescent tag- or biotin-labeled anti-human antibodies purchased from Miltenyi Biotec (Auburn, CA) and the secondary detection reagent recommended by the manufacturer.

[3] = Plate binding of FITC-labelled hyaluronic acid to immobilised biotinylated peptides; conditions: 400 ng peptide/well, 1 ug FITC-HMW-HA, PBS; normalized to immX3 peptide binding = 100
Method: (§2) Effects of pH, PIP2 and size classes: Streptavidin-coated 96-well plates (G-Biosciences, St. Louis, MO) were pre-loaded with biotinylated peptides [see Example 1] at 400 ng/well, at room temperature for 60 minutes. The plate was washed with PBS buffer and then 1 ug FITC-labelled heparin or hyaluronic acid (FITC-HMW-HA) in 100 uL PBS buffer was added per well (all tests done in quadruplicate). Incubation proceeded for 90 minutes at room temperature, followed by two PBS washes. The plate was read in a standard laboratory fluorometer (488/525 nm exitation/[…]) and the counts normalized for immX3 peptide binding=100. Values statistically above background are shown in bold font. **p<0.05 versus immX3AVD.

[4] = Plate binding of FITC-labelled heparin to immobilised biotinylated peptides; conditions: 400 ng peptide/well, 1 ug FITC-heparin, PBS; normalized to immX3 peptide binding = 100
Method: as §2

[5] = PIP-binding membrane assay (Membrane Lipid Strips); set-up: key: —: −−− no binding; +++ strong binding; conditions: 400 ng peptide
Method: N-terminally biotinylated versions of the peptides listed below were used in various assays listed in the examples. For the two types of phosphatidylinositon phosphate (PIP)-binding assays, imm1-imm6 peptides were used.
In the PIP-binding membrane assay, 400 ng of each peptide was bound to Membrane Lipid Strips (Catalog # P-6002, Echelon Biosciences, Salt Lake City, UT) and developed according to the manufacturer's instructions. Binding to PIPs was as follows (−−− no binding; +++ strong binding): […]

[6] = Plate assay: biotinylated peptide on streptavidin plates, FITC-labelled PIP2; type: binding; conditions: 400 ng peptide per well
Method: In the plate assay, biotinylated peptides imm3 and imm5 were bound to 96-well, streptavidin-coated plates (BioLegend corporaton, San Diego, CA) at 400 ng per well in PBS buffer at room temperature for 60 mins. Plates were washed in PBS and developed with FITC-labelled PIP2 (purchased from Cayman Chemical Co, Ann Arbor, MI). Fluorescence was counted in a laboratory fluorescence spectrophotometer. The results were as follows (EDTA background set to =100; **p<0.01 vs background control): […]

[7] = system: Primary human T-cells pre-selected for recognizing GAD65 peptide antigen; assay: GAD65-specific primary T-cell differentiation on peptide-treated THP1-Dual cells; type: cell-based; conditions: peptide 0.66 uM, GAD65 1 ug/ml
Method: as §1
Another non-myeloid lineage was also tested. Primary human T-cells pre-selected for recognizing GAD65 peptide antigen, and the peptide antigen itself were purchased from Cellero LLC (Memphis, TN). THP1-Dual cells were treated with both GAD65 peptide antigen (1 ug/ml) and immodulin peptide (0.66 uM) using the protocol described in Example 2. After completion of the myeloid cell differentiation step (24 hours), supernatants were collected and 100,000 primary T-cells were added to each well in RPMI-1640 medium (100 uL per well). Plates were incubated for an additional 96 hours and cell extracts were prepared using CellLytic-M reagent (Sigma Chemical Co., St Louis, MO). Supernatants were assayed for CCL22, IL-10 and TGFbeta, and cell extracts assayed for FoxP3, all by ELISA using reagents from R&D Systems, Minneapolis, MN. The results are shown in the table below (**p<0.05 vs immX3AVD, set to=100): […]

[8] = Second binding experiment: FITC-HMW-HA binding with holotransferrin, pH and cold competitors; set-up: key to FITC-HMW-HA binding, +cold LMW-HA / FITC-HMW-HA binding, +cold HMW-HA: fluorescence counts normalized to peptide binding control = 100; conditions: holotransferrin 10 ug/well; for FITC-HMW-HA binding, +cold HMW-HA: HMW-HA 10 ug/well; for FITC-HMW-HA binding, +cold LMW-HA: LMW-HA hexamer 10 ug/well; for FITC-HMW-HA binding, +cold PIP2: excess PIP2 500 ng/well
Method: as §2
A second binding experiment was done as above, but using either 6 mM sodium phosphate buffer pH 7.4 or sodium citrate buffer pH 5.2 in the presence of FITC-HMW-HA (1.5 ug/well), holotransferrin (10 ug/well) and excess PIP2 (500 ng/well), LMW-HA (hexamer; 10 ug/well) or HMW-HA (10 ug/well). **p<0.05 versus peptide binding control (=100);

- Hyaluronate binding (fluorescence counts) [3]: 57.2 ± 5.7**
- Heparin binding (fluorescence counts) [4]: 104.2 ± 22.0
- Binding to Phosphatidylinositol [5]: —
- Binding to PtdIns(4)P [PIP1] [5]: —
- Binding to PtdIns(4,5)P [PIP2] [5]: +++
Compound: N=C(N)NCCC[C@H](NC(=O)CNC(=O)[C@H](CCCCN)NC(=O)[C@H](CO)NC(=O)[C@@H]1CCCN1C(=O)[C@H](CCCNC(=N)N)NC(=O)[C@H](CS)NC(=O)[C@H](CCC(N)=O)NC(=O)[C@H](CCCCN)NC(=O)[C@H](CCCCN)NC(=O)[C@H](CCCCN)NC(=O)[C@H](Cc1ccc(O)cc1)NC(=O)[C@H](Cc1ccccc1)NC(=O)CNC(=O)[C@H](CCCCN)NC(=O)[C@@H](N)CCCCN)C(=O)N[C@@H](CCCCN)C(=O)N[C@@H](CCCNC(=N)N)C(=O)NCC(=O)N[C@@H](Cc1ccccc1)C(=O)N[C@@H](CS)C(=O)N[C@@H](Cc1c[nH]c2ccccc12)C(=O)O [imm3] (H-KKGFYKKKQCRPSKGRKRGFCW-OH)
- COL1 (Collagen-1A1 immunoreactivity in supernatant) [1]: 101
- CD169+ (AU) [2]: 27.8 ± 3.0 AU
- CCL22 [2]: 55.3 ± 16.1 pg/mL
- FITC-PIP2 fluorescence, Background Control ([6]; EDTA background): 1.0 ± 0.8
- FITC-PIP2 fluorescence, Ferric Iron ([6]; with ferric iron): 26.2 ± 5.7**
- FITC-PIP2 fluorescence, Zinc ([6]; with zinc): 4.7 ± 1.3**

- Hyaluronate binding (fluorescence counts) [3]: 113.9 ± 15.7
- Heparin binding (fluorescence counts) [4]: 68.7 ± 26.2
- FITC-HMW-HA binding, CONTROL ([8]; pH 5.2): 66.6 ± 7.2**
- FITC-HMW-HA binding, +cold HMW-HA ([8]; pH 5.2): 9.6 ± 6.5**
- FITC-HMW-HA binding, +cold LMW-HA ([8]; pH 5.2): 76.8 ± 5.9
- FITC-HMW-HA binding, +cold PIP2 ([8]; pH 5.2): 52.8 ± 4.0**
- FITC-HMW-HA binding, +cold HMW-HA ([8]; pH 7.4): 22.6 ± 8.8**
- FITC-HMW-HA binding, +cold LMW-HA ([8]; pH 7.4): 94.9 ± 11.4
- FITC-HMW-HA binding, +cold PIP2 ([8]; pH 7.4): 53.7 ± 2.1**
- FITC-HMW-HA binding, CONTROL ([8]; pH 7.4, peptide binding control = 100): 100.0 ± 7.6
Compound: RKGFYKRKQCKPSRGRKRGICWAVD [immX5AVD]
- CD169+ (AU) [2]: 100.9 ± 3.5 AU
- CCL22 [2]: 228.6 ± 8.1 pg/mL
- FoxP3 (AU) ([7]; cell extracts, immX3AVD = 100): 14.8 ± 4.3** AU
- CCL22 (pg/ml) ([7]; supernatant): 58.7 ± 2.7** pg/ml
- IL-10 (pg/ml) ([7]; supernatant): 870 ± 8.2** pg/ml
- TGFb (pg/ml) ([7]; supernatant): 52.8 ± 7.4** pg/ml

- Hyaluronate binding (fluorescence counts) [3]: 14.6 ± 22.6
- Heparin binding (fluorescence counts) [4]: 6.8 ± 24.1
- Binding to Phosphatidylinositol [5]: —
- Binding to PtdIns(3,4,5)P [PIP3] [5]: —
- Binding to PtdIns(4)P [PIP1] [5]: —
- Binding to PtdIns(4,5)P [PIP2] [5]: —
Compound: CC(C)C[C@H](NC(=O)[C@H](C)NC(=O)[C@@H]1CCCN1C(=O)[C@H](Cc1c[nH]cn1)NC(=O)[C@H](CS)NC(=O)[C@H](CCC(N)=O)NC(=O)[C@H](CCCCN)NC(=O)[C@@H]1CCCN1C(=O)[C@H](Cc1c[nH]cn1)NC(=O)[C@H](Cc1ccccc1)NC(=O)[C@H](CC(N)=O)NC(=O)CNC(=O)[C@H](CC(N)=O)NC(=O)[C@@H](N)CCCNC(=N)N)C(=O)N[C@@H](CC(=O)O)C(=O)NCC(=O)N[C@@H](CCC(N)=O)C(=O)N[C@@H](CCCNC(=N)N)C(=O)NCC(=O)N[C@@H](CCCCN)C(=O)N[C@@H](CS)C(=O)N[C@@H](Cc1c[nH]c2ccccc12)C(=O)O [imm4] (H-RNGNFHPKQCHPALDGQRGKCW-OH)
- COL1 (Collagen-1A1 immunoreactivity in supernatant) [1]: 105
- CD169+ (AU) [2]: 3.8 ± 1.1 AU

Compound: FNSYELGSLKKGFYKKKQCRPSKGRKRGFCW [imm3K8]
- COL1 (Collagen-1A1 immunoreactivity in supernatant) [1]: 98

Compound: AFNSYELGSKGFYKKKQCRPSKGRKRGFCWAVDKY [imm3K9c]
- COL1 (Collagen-1A1 immunoreactivity in supernatant) [1]: 158**

Compound: AFNSYELGSKGFYKKKQCRPSKGRKRGFCW [imm3K9]
- COL1 (Collagen-1A1 immunoreactivity in supernatant) [1]: 155**

Compound: AFNSYELGSKKGFYKKKQCRPSKGRKRGFCW [imm3K9.1]
- COL1 (Collagen-1A1 immunoreactivity in supernatant) [1]: 156**
